In patent US7176228B2, “Pyrazole biphenylcarboxamides” (Bayer Cropscience AG, priority 2000, dated 2007):

Experiments:
[1] = system: Gloeophyllum trabeum, Coniophora puteana, Poria placenta, Lentinus tigrinus and Coriolus versicolor; assay: Inhibition test on giant colonies of Basidiomycetes; format: cell-based; settings: inhibition of hyphal growth on malt extract peptone agar at 26° C., 6 ppm active compound; read-out: % efficacy
Experimental: Inhibition Test on Giant Colonies of Basidiomycetes Mycelium sections were removed from colonies of Gloeophyllum trabeum, Coniophora puteana, Poria placenta, Lentinus tigrinus and Coriolus versicolor and incubated on an agar medium containing malt extract peptone at 26° C. The inhibition of hyphal growth on active-compound-containing media was compared with the longitudinal growth on media without an addition of active compound and rated as per cent inhibition.

[2] = system: Venturia inaequalis; assay: Venturia test (apple) / protective; format: in vivo; settings: 288 h, apple plants, protective spray, application rate 100 g/ha, evaluation 12 days after inoculation, read-out: % Efficacy
Experimental: Venturia Test (apple)/Protective [table] To produce a suitable preparation of active compound, 1 part by weight of active compound is mixed with the stated amounts of solvent and emulsifier, and the concentrate is diluted with water to the desired concentration. To test for protectivity activity, young plants are sprayed with the preparation of active compound at the stated application rate. After the spray coating has dried on, the plants are inoculated with an aqueous conidia suspension of the apple scab pathogen Venturia inaequalis and then remain in an incubation cabin at approximately 20° C. and 100% relative atmospheric humidity for 1 day. The plants are then placed in a greenhouse at approximately 21° C. and a relative atmospheric humidity of approximately 90%. Evaluation is carried out 12 days after the inoculation. 0% means an efficacy which corresponds to that of the control, whereas an efficacy of 100% means that no infection is observed.

[3] = system: Podosphaera leucotricha; assay: Podosphaera test (apple) / protective; format: in vivo; settings: 240 h, apple plants, protective spray, application rate 100 g/ha, evaluation 10 days after inoculation, read-out: % Efficacy
Experimental: Podosphaera Test (apple)/Protective Solvent: 24.5 parts by weight of acetone • 24.5 parts by weight of dimethylacetamide Emulsifier; 1.0 part by weight of alkyl-aryl polyglycol ether To produce a suitable preparation of active compound, 1 part by weight of active compound is mixed with the stated amounts of solvent and emulsifier, and the concentrate is diluted with water to the desired concentration. To test for protectiv activity, young plants are sprayed with the preparation of active compound at the stated application rate. After the spray coating has dried on, the plants are inoculated with an aqueous spore suspension of the apple mildew pathogen Podosphaera leucotricha. The plants are then placed in a greenhouse at approximately 23° C. and a relative atmospheric humidity of approximately 70%. Evaluation is carried out 10 days after the inoculation. 0% means an efficacy which corresponds to that of the control, whereas an efficacy of 100% means that no infection is observed.

[4] = system: Puccinia recondite; assay: Puccinia test (wheat) / protective; format: in vivo; settings: wheat plants, protective spray, application rate 250 g/ha, evaluation 10 days after inoculation
Experimental: Puccinia Test (wheat)/Protective [table] To produce a suitable preparation of active compound, 1 part by weight of active compound is mixed with the stated amounts of solvent and emulsifier, and the concentrate is diluted with water to the desired concentration. To test for protective activity, young plants arc sprayed with the preparation of active compound at the stated application rate. After the spray coating has dried on, the plants are sprayed with a conidia suspension of Puccinia recondite. The plants remain in an incubation cabin at 20° C. and 100% relative atmospheric humidity for 48 hours. The plants are then placed in a greenhouse at a temperature of approximately 20° C. and a relative atmospheric humidity of 80% to promote the development of rust pustules. Evaluation is carried out 10 days after the inoculation. 0% means an efficacy which corresponds to that of the control, whereas an efficacy of 100% means that no infection is observed.

[5] = system: Alternaria solani; assay: Alternaria test (tomato) / protective; format: in vivo; settings: tomato plants, protective spray, application rate 750 g/ha, evaluation 7 days after inoculation
Experimental: Alternaria Test (tomato)/Protective [table] To produce a suitable preparation of active compound, 1 part by weight of active compound is mixed with the stated amounts of solvent and emulsifier, and the concentrate is diluted with water to the desired concentration. To test for protective activity, young tomato plants are sprayed with the preparation of active compound at the stated application rate. 1 day after the treatment, the plants are inoculated with a spore suspension of Alternaria solani and then remain at 100% rel. humidity and 20° C. for 24 h. The plants then remain at 96% rel. atmospheric humidity and a temperature of 20° C. Evaluation is carried out 7 days after the inoculation. 0% means an efficacy which corresponds to that of the control, whereas an efficacy of 100% means that no infection is observed.

[6] = system: Sphaerotheca fuliginea; assay: Sphaerotheca test (cucumber) / protective; format: in vivo; settings: Podosphaera fuliginea, 240 h; cucumber plants, protective spray, application rate 100 g/ha, evaluation 10 days after inoculation; read-out: % Efficacy
Experimental: Sphacrotheca Test (cucumber)/Protective [table] To produce a suitable preparation of active compound, 1 part by weight of active compound is mixed with the stated amounts of solvent and emulsifier, and the concentrate is diluted with water to the desired concentration. To test for protectivity activity, young plants are sprayed with the preparation of active compound at the stated application rate. After the spray coating has dried on, the plants are inoculated with an aqueous spore suspension of Sphaerotheca fuliginea. The plants are then placed in a greenhouse at approximately 23° C. and a relative atmospheric humidity of approximately 70%. Evaluation is carried out 10 days after the inoculation. 0% means an efficacy which corresponds to that of the control, whereas an efficacy of 100% means that no infection is observed.

In the case of `CO/N=C/c1ccc(-c2ccccc2NC(=O)c2sc(C)nc2C(F)(F)F)cc1` [Example I-1], the Emax at 6 ppm [1] is reported as 100%, the pest or weed control at 100 g/ha [2] is reported as 100% and the pest or weed control at 100 g/ha [3] is reported as 100%. The “% Efficacy” value [4] was 100%, the “% Efficacy” value [5] was 100% and the pest or weed control at 100 g/ha [6] was 100%.
For `CO/N=C/c1cccc(-c2ccccc2NC(=O)c2sc(C)nc2C(F)(F)F)c1` [Example I-2], the “% Efficacy” value [5] was 100%.
`CCCCO/N=C\c1ccc(-c2ccccc2NC(=O)c2sc(C)nc2C(F)(F)F)cc1` [Example I-3] was tested, and the pest or weed control at 100 g/ha [2] was 100%, the pest or weed control at 100 g/ha [3] was 100% and the “% Efficacy” value [4] was 100%. It also gave a pest or weed control at 100 g/ha [6] of 100%.
Work on `CCO/N=C\c1ccc(-c2ccccc2NC(=O)c2sc(C)nc2C(F)(F)F)cc1` [Example I-4] yielded a pest or weed control at 100 g/ha [2] of 100%, a pest or weed control at 100 g/ha [3] of 95% and a pest or weed control at 100 g/ha [6] of 93%.
`Cc1nc(C(F)(F)F)c(C(=O)Nc2ccccc2-c2ccc(/C=N\OC(C)C)cc2)s1` [Example I-5] showed a pest or weed control at 100 g/ha [2] of 100%, a pest or weed control at 100 g/ha [3] of 100% and a pest or weed control at 100 g/ha [6] of 100%.
`CO/N=C(\C)c1ccc(-c2ccccc2NC(=O)c2sc(C)nc2C(F)(F)F)cc1` [Example I-6] was tested, and the “% Efficacy” value [5] was 90%.
With `CO/N=C\c1ccc(-c2ccccc2NC(=O)c2cn(C)nc2C(F)(F)F)cc1` [Example I-10] the Emax at 6 ppm [1] was 100%, the pest or weed control at 100 g/ha [2] was 88% and the pest or weed control at 100 g/ha [3] was 88%. For the same compound, the “% Efficacy” value [4] was 100% and the pest or weed control at 100 g/ha [6] was 88%.
Work on `CO/N=C/c1ccc(-c2ccccc2NC(=O)c2cn(C)nc2C(F)F)cc1` [Example I-11] yielded an Emax at 6 ppm [1] of 100%, a pest or weed control at 100 g/ha [2] of 100% and a pest or weed control at 100 g/ha [3] of 93%. The “% Efficacy” value [5] was 95% and the pest or weed control at 100 g/ha [6] was 95%.
With `CO/N=C\c1ccc(-c2ccccc2NC(=O)c2cn(C)nc2C)cc1` [Example I-12] the Emax at 6 ppm [1] was 100%.
In the case of `CO/N=C\c1ccc(-c2ccccc2NC(=O)c2cccnc2Cl)cc1` [Example I-20], the pest or weed control at 100 g/ha [2] is reported as 100%, the pest or weed control at 100 g/ha [3] is reported as 100% and the “% Efficacy” value [4] is reported as 100%. For the same compound, the pest or weed control at 100 g/ha [6] was 100%.
For `CCCCO/N=C/c1ccc(-c2ccccc2NC(=O)c2cn(C)nc2C(F)(F)F)cc1` [Example I-22], the pest or weed control at 100 g/ha [2] was 100%, the pest or weed control at 100 g/ha [3] was 100% and the pest or weed control at 100 g/ha [6] was 100%.
`CCCO/N=C/c1ccc(-c2ccccc2NC(=O)c2sc(C)nc2C(F)(F)F)cc1` [Example I-23] gave a pest or weed control at 100 g/ha [2] of 100%, a pest or weed control at 100 g/ha [3] of 100% and a pest or weed control at 100 g/ha [6] of 100%.
For `CCO/N=C(/C)c1ccc(-c2ccccc2NC(=O)c2cn(C)nc2C(F)(F)F)cc1` [Example I-24], the pest or weed control at 100 g/ha [2] was 100%, the pest or weed control at 100 g/ha [3] was 75% and the pest or weed control at 100 g/ha [6] was 92%.
`CC(C)O/N=C/c1ccc(-c2ccccc2NC(=O)c2cn(C)nc2C(F)(F)F)cc1` [Example I-26] gave a pest or weed control at 100 g/ha [2] of 100%, a pest or weed control at 100 g/ha [3] of 100% and a pest or weed control at 100 g/ha [6] of 100%.
Work on `CCCO/N=C/c1ccc(-c2ccccc2NC(=O)c2cn(C)nc2C(F)(F)F)cc1` [Example I-28] yielded a pest or weed control at 100 g/ha [2] of 100%, a pest or weed control at 100 g/ha [3] of 99% and a pest or weed control at 100 g/ha [6] of 100%.
`Cn1cc(C(=O)Nc2ccccc2-c2ccc(/C=N\O)cc2)c(C(F)(F)F)n1` [Example I-41] gave a pest or weed control at 100 g/ha [2] of 100%, a pest or weed control at 100 g/ha [3] of 98% and a pest or weed control at 100 g/ha [6] of 72%.
Compound `CO/N=C/c1ccc(-c2ccccc2NC(=O)c2sccc2C)cc1` [Example I-47] has a pest or weed control at 100 g/ha [2] of 100%, a pest or weed control at 100 g/ha [3] of 100% and a pest or weed control at 100 g/ha [6] of 100%.
`CO/N=C/c1ccc(-c2ccccc2NC(=O)c2cn(C)nc2C(F)(F)F)cc1Cl` [Example I-49] was tested, and the pest or weed control at 100 g/ha [2] was 100%, the pest or weed control at 100 g/ha [3] was 100% and the “% Efficacy” value [4] was 100%. The pest or weed control at 100 g/ha [6] was 100%.
With `CO/N=C\c1cc(-c2ccccc2NC(=O)c2cn(C)nc2C(F)(F)F)ccc1/C=N/OC` [Example I-50] the pest or weed control at 100 g/ha [2] was 100%, the pest or weed control at 100 g/ha [3] was 93% and the pest or weed control at 100 g/ha [6] was 97%.
With `CO/N=C/c1ccc(-c2c(C)cccc2NC(=O)c2sc(C)nc2C(F)(F)F)cc1` [Example I-51] the pest or weed control at 100 g/ha [2] was 100%, the pest or weed control at 100 g/ha [3] was 100% and the “% Efficacy” value [4] was 100%. It also gave a pest or weed control at 100 g/ha [6] of 100%.
`CO/N=C/c1cccc(-c2ccccc2NC(=O)c2cn(C)nc2C(F)(F)F)c1` [Example I-52] gave a pest or weed control at 100 g/ha [2] of 100%, a pest or weed control at 100 g/ha [3] of 77% and a pest or weed control at 100 g/ha [6] of 97%.
